Tests used:
Type in all cases: cell-based, Human
H522 = assay: MTT cell viability assay, H522
Experimental: (§1) Human NSCLC cell lines A549, H1437, H2087, H522, and HCC827 were obtained from the Korean Cell Line Bank (KCLB, Seoul, Korea). These cells were cultured in RPMI-1640 medium (Gibco, N.Y., USA) supplemented with 10% FBS (Gibco) and 1% penicillin-streptomycin (HyClone Laboratories, Logan, Utah, USA). All cell lines were cultured under standard conditions (5% CO2, humid environment, 37° C.). A549 cells were seeded at a density of 1×10^4 cells/well and H1437, H2087, H522, HCC827, and MRCS cells at a density of 2×10^4 cells/well in 96-well plates and were cultured until cells reach approximately 70-80% confluency. The NSCLC cells were treated with plant hormones for 48 hours. Stock solution of each plant hormone was diluted with culture medium, wherein concentrations of DMSO, water, methanol, and ethanol in the culture medium were below 1% (v/v). The half-maximal inhibitory concentration (IC50) was calculated using CompuSyn software (ComboSyn Inc., Paramus, N.J., USA).
(§2) The inhibitory effect of plant hormones and their derivatives was investigated on 5 NSCLC cell lines (A549, H1437, H2087, H522, and HCC827). The NSCLC cells were treated with ABA, Cor, ethephon, GR-24, IAA, KR, MJ, N6b, N6i, oTR, and SS-HCS at concentrations of 0.1, 0.5, 1, 5, 10, 50, and 100 μM. Cell viability and IC50 values for 48 hours were investigated by performing the MTT assay.

HCC827 = assay: MTT cell viability assay, HCC827
Experimental: as §1, §2

H1437 = assay: MTT cell viability assay, H1437
Experimental: as §1, §2

A549 = assay: MTT cell viability assay, A549
Experimental: as §1, §2

H2087 = assay: MTT cell viability assay, H2087
Experimental: as §1, §2

NSCLC cells = assay: MTT cell viability assay, NSCLC cells overall; conditions: Homo sapiens; 48 hours, MTT assay, 5 NSCLC cell lines
Experimental: as §1, §2

[1] = Homo sapiens, NCI-H522, 48 hours
[2] = Homo sapiens, NCI-H1437, 48 hours
[3] = Homo sapiens, NCI-H2087, 48 hours

Row | Structure (SMILES) | IC50 (H522; 48 hours) [µM] | IC50 (HCC827; 48 hours) [µM] | IC50 (H1437; 48 hours) [µM] | IC50 (A549; 48 hours) [µM] | IC50 (H2087; 48 hours) [µM] | IC50 (H522; [1]) [µM] | IC50 (HCC827; Homo sapiens, HCC827, 48 hours) [µM] | IC50 (H1437; [2]) [µM] | IC50 (A549; Homo sapiens, A549, 48 hours) [µM] | IC50 (H2087; [3]) [µM] | IC50 (NSCLC cells) [µM]
1 | CC1=CC(=O)CC(C)(C)[C@@]1(O)/C=C/C(C)=C\C(=O)O [ABA, abscisic acid] | – | – | – | – | – | > 100 | > 100 | > 100 | > 100 | > 100 | –
2 | CC[C@H]1C=C(C(=O)N[C@@]2(C(=O)O)C[C@@H]2CC)[C@H]2CCC(=O)[C@H]2C1 [Cor, coronatine] | > 100 | > 100 | > 100 | > 100 | > 100 | – | – | – | – | – | –
3 | O=P(O)(O)CCCl [Ethephon, ethephon] | – | – | – | – | – | > 100 | > 100 | > 100 | > 100 | > 100 | –
4 | CC1=C[C@H](O/C=C2/C(=O)O[C@@H]3c4ccccc4C[C@H]23)OC1=O [GR-24, Gerald Rosebery-24] | > 100 | > 100 | > 100 | > 100 | > 100 | – | – | – | – | – | –
5 | OC[C@H]1O[C@@H](n2cnc3c(NCc4ccco4)ncnc32)[C@H](O)[C@@H]1O [KR, Kinetin riboside] | – | – | – | – | – | 73 ± 10.9 | 33.13 ± 0.14 | 76.8 ± 13.7 | 12.3 ± 1.42 | 98.5 ± 6.72 | < 100
6 | CC/C=C\CC1C(=O)CCC1CC(=O)OC (stereo not shown) [MJ, methyl jasmonate] | – | – | – | – | – | > 100 | > 100 | > 100 | > 100 | > 100 | –
7 | OC[C@H]1O[C@@H](n2cnc3c(NCc4ccccc4)ncnc32)[C@H](O)[C@@H]1O [N^6b, N^6-benzyladenosine, reference compound] | – | – | – | – | – | – | – | – | – | – | < 100
8 | CC[C@@H](C(C)C)[C@@H](O)[C@H](O)[C@@H](C)[C@H]1CC[C@H]2[C@@H]3CC(=O)[C@H]4C[C@H](O)[C@H](O)C[C@]4(C)[C@H]3CC[C@]12C [SS-HCS, SS-homocastasterone] | > 100 | 72.3 ± 13.6 | 34.7 ± 2.04 | 87.5 ± 15.5 | 85.4 ± 8.81 | – | – | – | – | – | –
